Literature values as cited in paper PMC8198792, “Prediction of Anticancer Peptides with High Efficacy and Low Toxicity by Hybrid Model Based on 3D Structure of Peptides” (International Journal of Molecular Sciences, 2021).
Like-named read-outs stand apart in the source and are kept apart here.

Assays:
[1] = test system: many types of cells, including non-cancer cells; details: toxic peptides dataset TD2; class label 1 (toxic, positive set) or 0 (non-toxic AMP, negative set); ref SATPdb; cited from earlier work
[2] = test system: cancer cell lines; set-up: method as in 6 sources, ref CancerPPD [45] and SATPdb ||| ref CancerPPD/SATPdb ||| ref CancerPPD, SATPdb, Swissprot (PDB) ||| ref CancerPPD/SATPdb/Swissprot(PDB) ||| ref CancerPPD / SATPdb ||| ...; details: cited from earlier work
Description: Supplement ijms-22-05630-s001.zip/ACPs(seguence).xlsx, sheet "D1" | column: Activity || Supplement ijms-22-05630-s001.zip/ACPs(seguence).xlsx, sheet "D2" | column: Activity || Supplement ijms-22-05630-s001.zip/ACPs(seguence).xlsx, sheet "D3" | column: Activity || (+ 2 further places)

[3] = ACPs dataset D3 (sheet "D3"), label 1 = ACP, 0 = non-ACP, ref CancerPPD/SATPdb
[4] = ACPs dataset D4 (sheet "D4"), label 1 = ACP, 0 = non-ACP, ref CancerPPD / SATPdb
[5] = ACPs dataset D5, sheet "D5", label 1 = ACP, 0 = non-ACP, ref CancerPPD [45] and SATPdb
[6] = ACPs dataset D3 (supplement sheet "D3"), 1 = ACP, 0 = non-ACP, ref CancerPPD [45] and SATPdb

FLPIAGKLLSGLSGLL [satpdb12964]
Activity [1]: 0
Activity [2, 3]: 0
Activity [2, 4]: 0
Activity [2, 5]: 0

AIGSILGALAKGLPTLISWIKNR [satpdb14614]
Activity [1]: 1
Activity [2, 3]: 0
Activity [2, 4]: 0
Activity [2, 5]: 0

GLFSVLGSVAKHLLPHVAPIIAEKL [satpdb13391]
Activity [1]: 0
Activity [2, 3]: 0
Activity [2, 4]: 0
Activity [2, 5]: 0

RGGRLCYCRPRFCVCVGR [satpdb12800]
Activity [1]: 0
Activity [2, 3]: 0
Activity [2, 4]: 0
Activity [2, 5]: 0

GLWEKIKEKANELVSGIVEGVK [satpdb12905]
Activity [1]: 0
Activity [2, 3]: 0
Activity [2, 4]: 0
Activity [2, 5]: 0

FLPLVGKILSGLI [satpdb11230]
Activity [1]: 0
Activity [2, 6]: 0
Activity [2, 4]: 0
Activity [2, 5]: 0

RADTQTYQPYNKDWIKEKIYVLLRRQAQQAGK [satpdb14189]
Activity [1]: 0
Activity [2, 3]: 0
Activity [2, 4]: 0
Activity [2, 5]: 0

ILGPVIKTIGGVIGGLLKNL [satpdb10308]
Activity [1]: 1
Activity [2, 6]: 0
Activity [2, 4]: 0
Activity [2, 5]: 0

GVLSAFKNALPGIMKIIV [satpdb14593]
Activity [1]: 0
Activity [2, 3]: 0
Activity [2, 4]: 0
Activity [2, 5]: 0

GVWDWLKKTAKNVWNSDIVKQLKGKAINAAKNYVAEKIGATPS [satpdb11887]
Activity [1]: 0
Activity [2, 6]: 0
Activity [2, 4]: 0
Activity [2, 5]: 0

VGKVLKQLKKVSAVAKVAMKKGAALLK [satpdb11069]
Activity [1]: 1
Activity [2, 6]: 0
Activity [2, 4]: 0
Activity [2, 5]: 0

GFRDVLKGAAKAFVKTVAGHIAN [satpdb12067]
Activity [1]: 0
Activity [2, 3]: 0
Activity [2, 4]: 0
Activity [2, 5]: 0

VOLFPFFNQY [satpdb13046]
Activity [1]: 0
Activity [2, 3]: 0
Activity [2, 4]: 0
Activity [2, 5]: 0

ALALLOHALHOLALLAOHLAHOLALA [satpdb11016]
Activity [1]: 0
Activity [2, 6]: 0

VOLFPWWNQY [satpdb13995]
Activity [1]: 0
Activity [2, 3]: 0
Activity [2, 4]: 0
Activity [2, 5]: 0

KFGKIVGKVLKQLKKVSAVAKVAMKKG [satpdb11425]
Activity [1]: 1
Activity [2, 6]: 0
Activity [2, 4]: 0
Activity [2, 5]: 0

GFLGSLLKTGLKVGSNLL [satpdb10293]
Activity [1]: 1
Activity ([2]; ACPs dataset D1, 1 = ACP (positive), 0 = non-ACP (negative), label taken from databases, ref CancerPPD [45] and SATPdb): 0
Activity ([2]; ACPs dataset D4 (sheet "D4"), label 1 = ACP (CancerPPD ID), 0 = non-ACP (non-anticancer AMP, SATPdb ID), ref CancerPPD [45] and SATPdb): 0

FASLLGKALKALAKQ [satpdb10678]
Activity [1]: 0
Activity [2, 6]: 0
Activity [2, 4]: 0
Activity [2, 5]: 0

FLPLLVGAISSILPKIF [satpdb12883]
Activity [1]: 1
Activity [2, 3]: 0
Activity [2, 4]: 0
Activity [2, 5]: 0

FLSLIPHAINAVSALANHG [satpdb14661]
Activity [1]: 0
Activity [2, 3]: 0
Activity [2, 4]: 0
Activity [2, 5]: 0

LRPAILVRIK [satpdb13588]
Activity [1]: 0
Activity [2, 3]: 0
Activity [2, 4]: 0
Activity [2, 5]: 0

GLWSNIKTAGKEAAKAALKAAGKAALGAVTDAV [satpdb12078]
Activity [1]: 0
Activity [2, 3]: 0
Activity [2, 4]: 0
Activity [2, 5]: 0

FKIKPGKVLDKFGKIVGKVLKQLKKVS [satpdb13509]
Activity [1]: 1
Activity [2, 3]: 0
Activity [2, 4]: 0
Activity [2, 5]: 0

KWKVFKKIEKMGRNIRNGIVKAGPAIAVLGEAKAILS [satpdb11163]
Activity [1]: 0
Activity [2, 6]: 0
Activity [2, 4]: 0
Activity [2, 5]: 0

FLGLLPSIVSGAVSLVKKL [satpdb10320]
Activity [1]: 0
Activity [2, 6]: 0
Activity [2, 4]: 0
Activity [2, 5]: 0
